# Data as given in patent publication US4181657A, “2-Aminooctahydroindolo[2,3-a]quinolizines useful in treating cardiovascular disorders” (Miles Laboratories, Inc., priority 1978, dated 1980).
# Where a name gives a salt, the structure may show the parent alone.
# Columns and labels:
# Format in all cases: in vivo
# [1] = system: Systolic Blood Pressure; assay: Antihypertensive activity: indirect systolic blood pressure in renal hypertensive rats; conditions: rat, 31 mg/kg p.o., * in table = statistically significant change from control
# Procedure: Rats were made hypertensive by applying a figure of eight ligature to one kidney and removing the contralateral kidney two weeks later. At least four weeks after the second operation the animals were subjected to indirect systolic blood pressure measurements with an occluding cuff and pulse sensor system applied to the tail. Pressure measurements were made before and 1,2,4,6 and 8 hours after oral administration of the test compounds at a dose of 31 mg/kg. Each compound was tested in 5 or 10 rats. Statistical significance of differences between control and post treatment values was determined by Wilcoxon's signed rank test (F. Wilcoxon and R. A. Wilcox, Some Rapid Approximate Statistical Procedures, Lederle Laboratories, Pearl River, 1964).
# [2] = system: dog heart in situ; assay: Antianginal activity: aortic-coronary sinus difference in oxygen (myocardial oxygen consumption) in anesthetized dogs; conditions: 1 mg/kg i.v.; for antianginal activity (conclusion in words): based upon comparison with nitroglycerin, named compounds 'particularly'
# Procedure: Angina pectoris is a clinical condition of hypoxia that results from an imbalance in myocardial oxygen supply and demand. A drug reducing oxygen demand is useful in the treatment of angina pectoris, as has been the case with nitroglycerin and the beta-adrenergic blocking agents like propranolol (J. R. Paratt, Advan. Drug Res. 9:103-134, 1974). Accordingly,the antianginal activity of 2-substituted indoloquinolizines was evaluated by assessing their capacity to reduce oxygen consumption by the dog heart in situ. This method allows measurement of the difference in oxygen content of the arterial and venous blood.
# Mongrel dogs were anesthetized with pentobarbital and cannulas inserted in the trachea and in a femoral vein for artificial respiration with room air and for injection of test compounds, respectively. Heparin was administered intravenously to prevent blood clotting. The chest was opened at the sternal midline and an additional cannula introduced in the coronary sinus. Samples of blood were obtained from the coronary sinus cannula and from the thoracic aorta by direct puncture of the vessel. Partial pressure of oxygen in the samples was determined with a blood gas analyzer. Test compounds were injected intravenously at a dose of 1 mg/kg; oxygen measurements were made before administration and at 1, 5, 10, 20, 30, 40, 50 and 60 min after administration. One animal was used per test compound. As the standard of comparison, nitroglycerin was administered to a test animal and measurements were made in a similar manner.
# Differences between partial pressure values in arterial and venous blood samples were calculated for each measurement. Since coronary sinus blood is representative of the venous effluent from the heart, these differences reflect the consumption of oxygen by the myocardium. Thus, the decrease in arteriovenous oxygen difference produced by the compounds by this invention indicates a reduction in myocardial oxygen consumption.
# [3] = system: ventricular arrhythmia produced by chloroform; assay: Antiarrhythmic activity: protection from chloroform-induced ventricular arrhythmia in mice (Lawson model); conditions: mouse; for Antiarrhythmic activity, ED50 symbol (failed screening dose) / mice protected of 5: 31 mg/kg i.p.; for Antiarrhythmic activity, ED50 symbol (failed screening dose): groups of 5 mice; for ED50: ip, 10 min, i.p., 10 min before chloroform, 95% confidence limits in parentheses, read-out: ED50 (95% C.L.)
# Procedure: The antiarrhythmic activity of the compounds of this invention was determined in the experimental model described by J. W. Lawson (J. Pharmacol. Exper. Therap. 160:22-31, 1968). Test compounds were administered to groups of 5 mice at an intraperitoneal dose of 31 mg/kg. Ten minutes after injection each mouse was placed in a covered 300 ml glass beaker which contained cotton saturated with chloroform. The animal was observed closely and removed from the beaker immediately after respiratory arrest. The heart was quickly exposed by making an incision through the abdomen, diaphragm, thorax and pericardium for visual inspection of ventricular rate and rhythm. Ventricular contractions were counted for 30 seconds and animals with a rate not exceeding 100 beats per 30 seconds were considered protected from the ventricular arrhythmia produced by chloroform. Compounds protecting at least 3 of the 5 mice were subsequently tested at various doses and the results obtained were used to calculate the mean effective doses (ED50) and 95% confidence limits after the method of Litchfield and Wilcoxon (J. Pharmacol. Exper. Therap. 96:99-113, 1949). Table A presents the results obtained in the antiarrhythmic study.
Compound,Change in Systolic Blood Pressure at 1 hr [1],Change in Systolic Blood Pressure at 2 hr [1],Change in Systolic Blood Pressure at 4 hr [1],Change in Systolic Blood Pressure at 6 hr [1],Change in Systolic Blood Pressure at 8 hr [1],Arterio-Venous Difference in Oxygen Partial Pressure at 1 min [2] [mmHg],Arterio-Venous Difference in Oxygen Partial Pressure at 5 min [2] [mmHg],Arterio-Venous Difference in Oxygen Partial Pressure at 10 min [2] [mmHg],Arterio-Venous Difference in Oxygen Partial Pressure at 20 min [2] [mmHg],Arterio-Venous Difference in Oxygen Partial Pressure at 30 min [2] [mmHg],Arterio-Venous Difference in Oxygen Partial Pressure at 40 min [2] [mmHg],Arterio-Venous Difference in Oxygen Partial Pressure at 50 min [2] [mmHg],Arterio-Venous Difference in Oxygen Partial Pressure at 60 min [2] [mmHg],antianginal activity (conclusion in words) [2],"Antiarrhythmic activity, ED50 symbol (failed screening dose) [3]",ED50 [3] [mg/kg],mice protected of 5 [3]
"FC(F)(F)c1cccc(NC2CCN3CCc4c(n(Cc5ccccc5)c5ccccc45)C3C2)c1 (stereo not drawn) [TR3633, 12-benzyl-1,2,3,4,6,7,12,12b-octahydroindolo-2-(3-trifluoromethylanilino)[2,3-a]quinolizine dihydrochloride]",-10 mmHg,+2 mmHg,+8 mmHg,+4 mmHg,+13 mmHg,31,35,39,39,36,36,36,38,antianginal activity is seen,* (Did not protect 3 of 5 mice and thus was not tested further.),,
"Brc1cccc(NC2CCN3CCc4c(n(Cc5ccccc5)c5ccccc45)C3C2)c1.Cl (stereo not drawn) [TR3014, 12-benzyl-2-(3-bromoanilino)-1,2,3,4,6,7,12,12b-octahydroindolo[2,3-a]quinolizine hydrochloride]",+1 mmHg,-16 mmHg,-2 mmHg,0 mmHg,-3 mmHg,17,18,26,25,26,26,26,24,antianginal activity is seen,,32,at least 3 of 5 mice
"NS(=O)(=O)c1ccc(NC2CCN3CCc4c(n(Cc5ccccc5)c5ccccc45)C3C2)cc1 (stereo not drawn) [TR3718, 12-benzyl-1,2,3,4,6,7,12,12b-octahydro-(4-sulfonamidoanilino)-indolo[2,3-a]quinolizine hydrochloride]",-5 mmHg,-16 mmHg,-21 mmHg,-5 mmHg,+5 mmHg,20,17,17,16,16,16,18,18,,* (Did not protect 3 of 5 mice and thus was not tested further.),,
"c1ccc(Cn2c3c(c4ccccc42)CCN2CCC(Nc4ccccc4)CC32)cc1 (stereo not drawn) [TR2981, 2-anilino-12-benzyl-1,2,3,4,6,7,12,12b-octahydroindolo[2,3-a]quinolizine dihydrochloride]",-2 mmHg,+5 mmHg,-5 mmHg,+7 mmHg,+16 mmHg,17,20,21,22,23,24,24,24,antianginal activity is seen,,31,at least 3 of 5 mice
"Cl.Cl.NC1CCN2CCc3c(n(Cc4ccccc4)c4ccccc34)C2C1.O (stereo not drawn) [TR3698, 2-amino-12-benzyl-1,2,3,4,6,7,12,12b-octahydroindolo [2,3-a]-quinolizine dihydrochloride monohydrate]",-4 mmHg,-11 mmHg,-3 mmHg,+14 mmHg,+3 mmHg,27,27,27,28,28,29,28,27,,,42,at least 3 of 5 mice
"Cc1cccc(NC2CCN3CCc4c(n(Cc5ccccc5)c5ccccc45)C3C2)c1.Cl.Cl (stereo not drawn) [TR3008, 12-benzyl-2-(3-methylanilino)-1,2,3,4,6,7,12,12b-octahydroindolo[2,3-a]quinolizine dihydrochloride]",-27 mmHg,-24 mmHg,-17 mmHg,-17 mmHg,-20 mmHg,20,23,22,23,25,25,24,25,,* (Did not protect 3 of 5 mice and thus was not tested further.),,
